Drawing on US11053242B2, “[9,10-dimethoxy-3-(2-methylpropyl)-1H,2H,3H,4H,6H,7H,11BH-pyrido-[2,1-a]isoquinolin-2-yl]methanol and compounds, compositions and methods relating thereto” (Neurocrine Biosciences, Inc., priority 2015, dated 2021), this text covers Ki for 27 compounds.

The assay has as its target VMAT2 (human platelet homogenate) (Homo sapiens (Human), UniProt Q05940). The assay is described as follows: Human VMAT2 Ki, slightly modified competition binding procedure (Table 11).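 Further: competition binding with 90 min incubation at 25 °C, after which filter-retained radioligand was measured by scintillation counting.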 Particulars: 10 nM 3H-dihydrotetrabenazine.

VMAT2 (human platelet homogenate), sequence (Q05940 whole entry): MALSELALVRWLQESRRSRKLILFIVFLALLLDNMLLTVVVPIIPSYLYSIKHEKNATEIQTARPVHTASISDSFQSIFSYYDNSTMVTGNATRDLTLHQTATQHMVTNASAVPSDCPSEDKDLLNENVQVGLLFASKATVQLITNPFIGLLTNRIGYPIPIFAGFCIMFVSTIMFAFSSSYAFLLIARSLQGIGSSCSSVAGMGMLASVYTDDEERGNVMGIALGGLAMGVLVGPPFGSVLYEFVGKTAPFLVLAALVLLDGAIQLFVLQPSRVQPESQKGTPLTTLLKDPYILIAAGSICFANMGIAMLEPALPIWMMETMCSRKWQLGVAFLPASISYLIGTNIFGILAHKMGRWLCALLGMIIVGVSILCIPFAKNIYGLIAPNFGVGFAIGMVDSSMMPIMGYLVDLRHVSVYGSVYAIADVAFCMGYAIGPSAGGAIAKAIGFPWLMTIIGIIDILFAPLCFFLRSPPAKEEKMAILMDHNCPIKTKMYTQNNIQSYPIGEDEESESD
Procedure: Following incubation at 25° C. for 90 minutes, bound radioligand was collected by rapid filtration onto GF/B glass fiber filters using a Unifilter-96 Harvester (PerkinElmer). Filter plates were pre-treated with 0.1% polyethylenimine and allowed to dry overnight, and following harvesting the filter plates were washed with 800 d VMAT2 binding buffer. Bound radioligand was quantified by scintillation counting using a Topcount NXT (PerkinElmer).

Compound `COc1cc2c(cc1OC)[C@H]1C[C@@H](COC(=O)C3NCc4ccccc43)[C@H](CC(C)C)CN1CC2` (stereo partly drawn) [Compound 4-6, [(2R,3S,11bR)-9,10-dimethoxy-3-(2-methylpropyl)-1H,2H,3H,4H,6H,7H,11bH-pyrido[2,1-a]isoquinolin-2-yl]methyl 2,3-dihydro-1H-isoindole-1-carboxylate] gave an inhibition constant (Ki) of 10 to 500 nM.
As to `COc1cc2c(cc1OC)[C@H]1C[C@@H](COC(=O)[C@@H](N)c3ccccc3)[C@H](CC(C)C)CN1CC2` [Compound 4-33, [(2R,3S,11bR)-9,10-dimethoxy-3-(2-methylpropyl)-1H,2H,3H,4H,6H,7H,11bH-pyrido[2,1-a]isoquinolin-2-yl]methyl (2S)-2-amino-2-phenylacetate], the inhibition constant (Ki) is 10 to 500 nM.
The figure for `COc1cc2c(cc1OC)[C@H]1C[C@@H](COC(=O)CN3C[C@@H](C)O[C@@H](C)C3)[C@H](CC(C)C)CN1CC2` [Compound 2-8, [(2R,3S,11bR)-9,10-dimethoxy-3-(2-methylpropyl)-1H,2H,3H,4H,6H,7H,11bH-pyrido[2,1-a]isoquinolin-2-yl]methyl 2-[(2R,6S)-2,6-dimethylmorpholin-4-yl]acetate] is less than 10 nM.
In turn, `COc1cc2c(cc1OC)[C@H]1CC(COC(=O)[C@@H](N)C(C)C)[C@H](CC(C)C)CN1CC2` (stereo partly drawn) [Compound 4-12, [(3S,11bR)-9,10-dimethoxy-3-(2-methylpropyl)-1H,2H,3H,4H,6H,7H,11bH-pyrido[2,1-a]isoquinolin-2-yl]methyl (2S)-2-amino-3-methylbutanoate] gave a Ki of less than 10 nM.
As for `COc1cc2c(cc1OC)[C@H]1C[C@@H](COC(=O)CCn3nccc3C)[C@H](CC(C)C)CN1CC2` [Compound 2-29, [(2R,3S,11bR)-9,10-dimethoxy-3-(2-methylpropyl)-1H,2H,3H,4H,6H,7H,11bH-pyrido[2,1-a]isoquinolin-2-yl]methyl 3-(5-methyl-1H-pyrazol-1-yl)propanoate], the Ki fell in the range of 10 to 500 nM.
The compound `COc1cc2c(cc1OC)[C@H]1C[C@@H](COC(=O)N[C@@H]3CCCC[C@H]3C(=O)O)[C@H](CC(C)C)CN1CC2` [Compound 5-35, (1R,2R)-2-[({[(2R,3S,11bR)-9,10-dimethoxy-3-(2-methylpropyl)-1H,2H,3H,4H,6H,7H,11bH-pyrido[2,1-a]isoquinolin-2-yl]methoxy}carbonyl)amino]cyclohexane-1-carboxylic acid] had an inhibition constant Ki of 10 to 500 nM.
The figure for `COc1cc2c(cc1OC)[C@H]1C[C@@H](COC(=O)[C@@H]3CCCN(Cc4ccccc4)C3)[C@H](CC(C)C)CN1CC2` [Compound 2-11, [(2R,3S,11bR)-9,10-dimethoxy-3-(2-methylpropyl)-1H,2H,3H,4H,6H,7H,11bH-pyrido[2,1-a]isoquinolin-2-yl]methyl (3R)-1-benzylpiperidine-3-carboxylate] is less than 10 nM; for `COc1cc2c(cc1OC)[C@H]1C[C@@H](COC(=O)N3CCO[C@H](C)C3)[C@H](CC(C)C)CN1CC2` [Compound 5-37, [(2R,3S,11bR)-9,10-dimethoxy-3-(2-methylpropyl)-1H,2H,3H,4H,6H,7H,11bH-pyrido[2,1-a]isoquinolin-2-yl]methyl (2R)-2-methylmorpholine-4-carboxylate] it is less than 10 nM.
`COc1cc2c(cc1OC)[C@H]1C[C@@H](COC(=O)N3C[C@@H]4C[C@H]3CO4)[C@H](CC(C)C)CN1CC2` [Compound 5-24, [(2R,3S,11bR)-9,10-dimethoxy-3-(2-methylpropyl)-1H,2H,3H,4H,6H,7H,11bH-pyrido[2,1-a]isoquinolin-2-yl]methyl(1S,4S)-2-oxa-5-azabicyclo[2.2.1]heptane-5-carboxylate]: the inhibition constant (Ki) is less than 10 nM.
With `COc1cc2c(cc1OC)[C@H]1C[C@@H](COC(=O)C3CNCCO3)[C@H](CC(C)C)CN1CC2` (stereo partly drawn) [Compound 4-27, [(2R,3S,11bR)-9,10-dimethoxy-3-(2-methylpropyl)-1H,2H,3H,4H,6H,7H,11bH-pyrido[2,1-a]isoquinolin-2-yl]methyl morpholine-2-carboxylate], the Ki is less than 10 nM.
Take `COc1cc2c(cc1OC)[C@H]1C[C@@H](COC(=O)CC[N+](=O)[O-])[C@H](CC(C)C)CN1CC2` [Compound 2-14, [(2R,3S,11bR)-9,10-dimethoxy-3-(2-methylpropyl)-1H,2H,3H,4H,6H,7H,11bH-pyrido[2,1-a]isoquinolin-2-yl]methyl 3-nitropropanoate]: the inhibition constant Ki was less than 10 nM.
Compound `COc1cc2c(cc1OC)[C@H]1C[C@@H](COC(=O)C3(C)CCNCC3)[C@H](CC(C)C)CN1CC2` [Compound 4-35, [(2R,3S,11bR)-9,10-dimethoxy-3-(2-methylpropyl)-1H,2H,3H,4H,6H,7H,11bH-pyrido[2,1-a]isoquinolin-2-yl]methyl 4-methylpiperidine-4-carboxylate] returned a Ki of less than 10 nM.
Regarding `COc1cc2c(cc1OC)[C@H]1C[C@@H](COC(=O)[C@H]3CCCC[C@@H]3N)[C@H](CC(C)C)CN1CC2` [Compound 4-25, [(2R,3S,11bR)-9,10-dimethoxy-3-(2-methylpropyl)-1H,2H,3H,4H,6H,7H,11bH-pyrido[2,1-a]isoquinolin-2-yl]methyl (1S,2S)-2-aminocyclohexane-1-carboxylate], the inhibition constant (Ki) fell in the range of 10 to 500 nM.
As to `COc1cc2c(cc1OC)[C@H]1C[C@@H](COC(=O)C3CCCNC3)[C@H](CC(C)C)CN1CC2` (stereo partly drawn) [Compound 4-20, [(2R,3S,11bR)-9,10-dimethoxy-3-(2-methylpropyl)-1H,2H,3H,4H,6H,7H,11bH-pyrido[2,1-a]isoquinolin-2-yl]methyl piperidine-3-carboxylate], the Ki was less than 10 nM.
The figure for `COc1cc2c(cc1OC)[C@H]1C[C@@H](COC(=O)C3CCCN(C)C3)[C@H](CC(C)C)CN1CC2` (stereo partly drawn) [Compound 2-12, [(2R,3S,11bR)-9,10-dimethoxy-3-(2-methylpropyl)-1H,2H,3H,4H,6H,7H,11bH-pyrido[2,1-a]isoquinolin-2-yl]methyl 1-methylpiperidine-3-carboxylate] is less than 10 nM; for `COc1cc2c(cc1OC)[C@H]1C[C@@H](COC(=O)C3CCCC3N)[C@H](CC(C)C)CN1CC2` (stereo partly drawn) [Compound 4-11, [(2R,3S,11bR)-9,10-dimethoxy-3-(2-methylpropyl)-1H,2H,3H,4H,6H,7H,11bH-pyrido[2,1-a]isoquinolin-2-yl]methyl 2-aminocyclopentane-1-carboxylate] it is 10 to 500 nM.
`COc1cc2c(cc1OC)[C@H]1C[C@@H](COC(=O)N3C[C@@H](C)O[C@@H](C)C3)[C@H](CC(C)C)CN1CC2` [Compound 5-53, [(2R,3S,11bR)-9,10-dimethoxy-3-(2-methylpropyl)-1H,2H,3H,4H,6H,7H,11bH-pyrido[2,1-a]isoquinolin-2-yl]methyl (2R,6S)-2,6-dimethylmorpholine-4-carboxylate]: the Ki fell in the range of 10 to 500 nM.
Compound `COc1cc2c(cc1OC)C1CC(COC(=O)C3CC(C)(C)N([O])C3(C)C)C(CC(C)C)CN1CC2` [Compound 2-27, [3-({[(2R,3S,11bR)-9,10-dimethoxy-3-(2-methylpropyl)-1H,2H,3H,4H,6H,7H,11bH-pyrido[2,1-a]isoquinolin-2-yl]methoxy}carbonyl)-2,2,5,5-tetramethylpyrrolidin-1-yl]oxidanyl] had a Ki of 10 to 500 nM.
`CCN(CC)CCC(=O)OC[C@@H]1C[C@@H]2c3cc(OC)c(OC)cc3CCN2C[C@H]1CC(C)C` [Compound 2-32, [(2R,3S,11bR)-9,10-dimethoxy-3-(2-methylpropyl)-1H,2H,3H,4H,6H,7H,11bH-pyrido[2,1-a]isoquinolin-2-yl]methyl 3-(diethylamino)propanoate] returned a Ki of less than 10 nM.
As to `COc1cc2c(cc1OC)[C@H]1C[C@@H](COC(=O)CCC(N)=O)[C@H](CC(C)C)CN1CC2` [Compound 2-1, [(2R,3S,11bR)-9,10-dimethoxy-3-(2-methylpropyl)-1H,2H,3H,4H,6H,7H,11bH-pyrido[2,1-a]isoquinolin-2-yl]methyl 3-carbamoylpropanoate], the Ki was less than 10 nM.
Turning to `CCCCCC(=O)OC[C@@H]1C[C@@H]2c3cc(OC)c(OC)cc3CCN2C[C@H]1CC(C)C` [Compound 2-34, [(2R,3S,11bR)-9,10-dimethoxy-3-(2-methylpropyl)-1H,2H,3H,4H,6H,7H,11bH-pyrido[2,1-a]isoquinolin-2-yl]methyl hexanoate], the Ki is less than 10 nM.
Compound `COc1cc2c(cc1OC)[C@H]1C[C@@H](COC(=O)N3CCN4CCCCCC4C3)[C@H](CC(C)C)CN1CC2` (stereo partly drawn) [Compound 5-48, [(2R,3S,11bR)-9,10-dimethoxy-3-(2-methylpropyl)-1H,2H,3H,4H,6H,7H,11bH-pyrido[2,1-a]isoquinolin-2-yl]methyl decahydropiperazino[1,2-a]azepine-2-carboxylate] returned a Ki of less than 10 nM.
The figure for `COc1cc2c(cc1OC)[C@H]1C[C@@H](COC(=O)C3(C)COC3)[C@H](CC(C)C)CN1CC2` [Compound 2-18, [(2R,3S,11bR)-9,10-dimethoxy-3-(2-methylpropyl)-1H,2H,3H,4H,6H,7H,11bH-pyrido[2,1-a]isoquinolin-2-yl]methyl 3-methyloxetane-3-carboxylate] is less than 10 nM.
`COc1cc2c(cc1OC)[C@H]1C[C@@H](COC(=O)[C@@H]3COCCN3)[C@H](CC(C)C)CN1CC2` [Compound 4-3, [(2R,3S,11bR)-9,10-dimethoxy-3-(2-methylpropyl)-1H,2H,3H,4H,6H,7H,11bH-pyrido[2,1-a]isoquinolin-2-yl]methyl (3S)-morpholine-3-carboxylate] displayed an inhibitory constant (Ki) of 10 to 500 nM.
The figure for `COCOC[C@@H]1C[C@@H]2c3cc(OC)c(OC)cc3CCN2C[C@H]1CC(C)C` [Compound 9-5, (2R,3S,11bR)-9,10-dimethoxy-2-[(methoxymethoxy)methyl]-3-(2-methylpropyl)-1H,2H,3H,4H,6H,7H,11bH-pyrido[2,1-a]isoquinoline] is less than 10 nM.
With `COc1cc2c(cc1OC)[C@H]1C[C@@H](COC(=O)[C@@H]3CCCC[C@H]3N)[C@H](CC(C)C)CN1CC2` [Compound 4-4, [(2R,3S,11bR)-9,10-dimethoxy-3-(2-methylpropyl)-1H,2H,3H,4H,6H,7H,11bH-pyrido[2,1-a]isoquinolin-2-yl]methyl (1R,2R)-2-aminocyclohexane-1-carboxylate], the inhibitory constant (Ki) is less than 10 nM.
The result for `COc1cc2c(cc1OC)[C@H]1C[C@@H](COC(=O)CCN3CCCCC3)[C@H](CC(C)C)CN1CC2` [Compound 2-19, [(2R,3S,11bR)-9,10-dimethoxy-3-(2-methylpropyl)-1H,2H,3H,4H,6H,7H,11bH-pyrido[2,1-a]isoquinolin-2-yl]methyl 3-(piperidin-1-yl)propanoate] reads less than 10 nM.
